For one compound, inhibition and Ki results are on record in ChEMBL document CHEMBL1148572, “1-((S)-2-aminopropyl)-1H-indazol-6-ol: a potent peripherally acting 5-HT2 receptor agonist with ocular hypotensive activity” (J Med Chem, 2006).

pKi: −log10 of the molar value.

Assay [1] has as its target T1, Glutamate receptor ionotropic kainate (Homo sapiens) (UniProt P39086+Q16478+Q16099+Q13002+Q13003). Put plainly: Inhibition of kainate receptor at 100 nM. Format: protein-complex assay.
Assay [2] concerns the target Dopamine receptor (Homo sapiens) (UniProt P14416+P35462+P21918+P21917+P21728). Put plainly: Inhibition of non selective binding to dopamine receptor at 1 nM. It counts as protein assay.
The target in assay [3] is T2, B2 bradykinin receptor (Homo sapiens) (UniProt P30411).
T2 sequence (whole entry): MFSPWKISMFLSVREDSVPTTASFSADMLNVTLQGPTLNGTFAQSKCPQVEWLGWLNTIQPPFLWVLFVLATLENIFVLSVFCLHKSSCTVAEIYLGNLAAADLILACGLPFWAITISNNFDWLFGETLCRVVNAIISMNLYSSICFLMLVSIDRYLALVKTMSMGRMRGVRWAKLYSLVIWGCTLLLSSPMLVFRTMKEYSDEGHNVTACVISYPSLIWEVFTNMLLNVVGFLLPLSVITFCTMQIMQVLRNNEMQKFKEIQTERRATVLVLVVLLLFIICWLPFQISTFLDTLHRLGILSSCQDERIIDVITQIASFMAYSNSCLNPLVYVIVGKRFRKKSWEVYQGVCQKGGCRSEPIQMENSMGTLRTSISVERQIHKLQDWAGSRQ
Put plainly: Inhibition of bradykinin 2 receptor at 1 nM.

Assay [4] addresses T1, Glutamate receptor ionotropic kainate (Homo sapiens). Put plainly: Inhibition of kainate receptor at 10 uM. It counts as protein-complex assay.
The target in assay [5] is Leukotriene B4 receptor (Homo sapiens) (UniProt Q9NPC1+Q15722). Put plainly: Inhibition of leukotriene B4 at 100 nM. Format: protein assay.
Assay [6] deals with Protein kinase C, PKC; classical/novel (Homo sapiens) (UniProt O94806+P17252+P05129+Q05655+P05771+Q02156+P24723+Q15139+Q04759). Put plainly: Inhibition of PDBu activated protein kinase C at 1 nM. It counts as protein assay.
For assay [7], the target named is T3, Androgen receptor (Homo sapiens) (UniProt P10275).
T3 sequence (whole entry): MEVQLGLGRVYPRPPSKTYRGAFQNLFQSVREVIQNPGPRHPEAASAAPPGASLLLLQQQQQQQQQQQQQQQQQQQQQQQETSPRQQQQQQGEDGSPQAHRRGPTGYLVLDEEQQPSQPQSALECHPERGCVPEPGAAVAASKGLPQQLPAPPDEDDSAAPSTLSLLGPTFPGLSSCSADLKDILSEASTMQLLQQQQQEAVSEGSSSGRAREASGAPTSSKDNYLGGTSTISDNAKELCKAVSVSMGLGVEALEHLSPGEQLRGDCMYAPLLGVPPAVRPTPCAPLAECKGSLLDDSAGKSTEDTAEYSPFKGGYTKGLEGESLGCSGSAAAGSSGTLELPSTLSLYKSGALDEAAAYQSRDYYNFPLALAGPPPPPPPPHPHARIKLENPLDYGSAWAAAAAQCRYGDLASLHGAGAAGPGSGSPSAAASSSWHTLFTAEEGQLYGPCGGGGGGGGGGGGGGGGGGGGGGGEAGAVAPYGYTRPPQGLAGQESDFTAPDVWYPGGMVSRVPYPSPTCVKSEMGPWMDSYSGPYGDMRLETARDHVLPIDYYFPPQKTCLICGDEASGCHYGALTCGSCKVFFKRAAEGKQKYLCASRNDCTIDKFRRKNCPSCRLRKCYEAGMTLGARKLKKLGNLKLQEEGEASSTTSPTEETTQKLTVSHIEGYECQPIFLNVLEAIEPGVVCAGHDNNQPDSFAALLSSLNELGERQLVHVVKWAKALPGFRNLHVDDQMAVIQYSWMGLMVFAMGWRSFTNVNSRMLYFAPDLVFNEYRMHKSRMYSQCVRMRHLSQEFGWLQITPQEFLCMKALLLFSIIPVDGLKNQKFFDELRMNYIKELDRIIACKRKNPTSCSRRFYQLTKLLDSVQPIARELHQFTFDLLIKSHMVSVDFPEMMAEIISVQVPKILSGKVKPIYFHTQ
Put plainly: Inhibition of testosterone receptor at 10 uM.

Assay [8] addresses T3, Androgen receptor (Homo sapiens). Put plainly: Inhibition of testosterone receptor at 100 nM.
The target in assay [9] is Sodium-dependent noradrenaline transporter (Homo sapiens, UniProt P23975). Put plainly: Inhibition of NET at 100 nM.
Assay [10] deals with T4, 5-hydroxytryptamine receptor 2C (Homo sapiens, UniProt P28335).
T4 sequence (P28335 whole entry): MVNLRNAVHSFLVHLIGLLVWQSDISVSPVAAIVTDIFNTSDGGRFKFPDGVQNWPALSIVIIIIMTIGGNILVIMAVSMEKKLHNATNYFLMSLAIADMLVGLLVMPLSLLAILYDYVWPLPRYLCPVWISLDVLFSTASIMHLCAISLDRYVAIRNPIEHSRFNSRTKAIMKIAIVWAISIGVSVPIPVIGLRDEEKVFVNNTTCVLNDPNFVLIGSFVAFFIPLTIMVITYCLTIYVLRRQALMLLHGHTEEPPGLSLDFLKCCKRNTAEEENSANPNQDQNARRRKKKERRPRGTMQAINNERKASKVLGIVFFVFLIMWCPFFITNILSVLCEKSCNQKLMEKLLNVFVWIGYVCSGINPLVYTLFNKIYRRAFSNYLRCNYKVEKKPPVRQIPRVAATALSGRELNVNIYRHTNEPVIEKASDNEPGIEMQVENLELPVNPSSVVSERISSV
Put plainly: biochemical.
Description: Displacement of [125I]DOI from cloned human 5HT2C receptor expressed in CHO cells

Assay [11] concerns the target T3, Androgen receptor (Homo sapiens). Put plainly: Inhibition of testosterone receptor at 1 nM.
For assay [12], the target named is T5, Type-1 angiotensin II receptor (Homo sapiens) (UniProt P30556).
T5 sequence (whole entry): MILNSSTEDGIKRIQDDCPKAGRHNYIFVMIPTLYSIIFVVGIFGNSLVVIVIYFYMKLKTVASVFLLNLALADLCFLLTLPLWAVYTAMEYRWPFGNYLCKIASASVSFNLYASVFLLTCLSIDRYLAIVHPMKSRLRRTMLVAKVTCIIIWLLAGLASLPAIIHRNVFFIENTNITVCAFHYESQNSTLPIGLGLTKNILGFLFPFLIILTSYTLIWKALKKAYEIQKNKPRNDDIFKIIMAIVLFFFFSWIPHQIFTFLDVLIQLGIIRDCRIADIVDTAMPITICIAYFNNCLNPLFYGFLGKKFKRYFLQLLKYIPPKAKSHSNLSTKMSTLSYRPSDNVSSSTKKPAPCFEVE
Put plainly: Inhibition of type 1 angiotensin 2 receptor at 100 nM.

For assay [13], the target named is Opioid receptors; mu/kappa/delta (Homo sapiens) (UniProt P41145+P41143+P35372). Put plainly: Inhibition of non selective binding to opiate receptor at 10 uM. Format: protein assay.
Assay [14] addresses Glutamate [NMDA] receptor (Homo sapiens) (UniProt Q05586+Q12879+Q13224+O15399+O60391+Q14957+Q8TCU5). Put plainly: Inhibition of MK-801 site of glutamate receptor at 100 nM. It counts as protein-complex assay.

Sequence of Leukotriene B4 receptor (Homo sapiens) (Q15722 whole entry, looked up): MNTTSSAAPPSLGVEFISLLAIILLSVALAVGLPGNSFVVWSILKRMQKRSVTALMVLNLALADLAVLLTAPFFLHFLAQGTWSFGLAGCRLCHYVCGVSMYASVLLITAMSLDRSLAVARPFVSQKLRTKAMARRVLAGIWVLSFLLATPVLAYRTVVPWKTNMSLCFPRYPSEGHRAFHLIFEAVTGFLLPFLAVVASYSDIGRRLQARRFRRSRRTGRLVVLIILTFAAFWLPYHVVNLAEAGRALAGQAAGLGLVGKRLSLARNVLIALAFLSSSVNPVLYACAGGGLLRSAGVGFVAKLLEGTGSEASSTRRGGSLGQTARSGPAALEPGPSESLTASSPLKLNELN
Sequence of Leukotriene B4 receptor (Homo sapiens) (Q9NPC1 whole entry, looked up): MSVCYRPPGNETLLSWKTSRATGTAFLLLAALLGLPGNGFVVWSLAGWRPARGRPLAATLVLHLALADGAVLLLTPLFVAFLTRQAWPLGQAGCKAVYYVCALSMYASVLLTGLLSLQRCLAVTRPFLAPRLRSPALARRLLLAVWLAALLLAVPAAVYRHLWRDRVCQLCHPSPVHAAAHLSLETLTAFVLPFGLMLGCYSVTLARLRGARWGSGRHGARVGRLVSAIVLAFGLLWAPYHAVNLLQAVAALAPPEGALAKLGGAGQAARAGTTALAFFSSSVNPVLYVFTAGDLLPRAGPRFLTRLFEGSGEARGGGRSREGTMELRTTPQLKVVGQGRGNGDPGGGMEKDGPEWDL
Sequence of Sodium-dependent noradrenaline transporter (P23975 whole entry): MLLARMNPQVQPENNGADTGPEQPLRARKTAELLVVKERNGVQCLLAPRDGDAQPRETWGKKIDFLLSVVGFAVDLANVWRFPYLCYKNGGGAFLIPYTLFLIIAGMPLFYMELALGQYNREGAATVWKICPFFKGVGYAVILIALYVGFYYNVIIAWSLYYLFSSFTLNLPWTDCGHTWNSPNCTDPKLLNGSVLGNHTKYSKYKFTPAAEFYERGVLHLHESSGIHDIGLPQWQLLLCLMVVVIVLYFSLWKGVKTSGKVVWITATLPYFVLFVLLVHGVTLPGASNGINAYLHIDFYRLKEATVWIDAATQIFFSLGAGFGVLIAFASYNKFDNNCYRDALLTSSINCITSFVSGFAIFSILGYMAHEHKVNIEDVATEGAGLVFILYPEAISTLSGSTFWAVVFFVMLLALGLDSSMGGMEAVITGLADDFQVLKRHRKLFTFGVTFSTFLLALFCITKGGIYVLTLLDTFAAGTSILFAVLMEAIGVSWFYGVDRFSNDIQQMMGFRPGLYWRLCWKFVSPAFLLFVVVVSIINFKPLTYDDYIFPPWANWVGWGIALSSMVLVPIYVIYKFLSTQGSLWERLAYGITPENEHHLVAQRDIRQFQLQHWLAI
Sequence of Opioid receptors; mu/kappa/delta (Homo sapiens) (P35372 whole entry, looked up): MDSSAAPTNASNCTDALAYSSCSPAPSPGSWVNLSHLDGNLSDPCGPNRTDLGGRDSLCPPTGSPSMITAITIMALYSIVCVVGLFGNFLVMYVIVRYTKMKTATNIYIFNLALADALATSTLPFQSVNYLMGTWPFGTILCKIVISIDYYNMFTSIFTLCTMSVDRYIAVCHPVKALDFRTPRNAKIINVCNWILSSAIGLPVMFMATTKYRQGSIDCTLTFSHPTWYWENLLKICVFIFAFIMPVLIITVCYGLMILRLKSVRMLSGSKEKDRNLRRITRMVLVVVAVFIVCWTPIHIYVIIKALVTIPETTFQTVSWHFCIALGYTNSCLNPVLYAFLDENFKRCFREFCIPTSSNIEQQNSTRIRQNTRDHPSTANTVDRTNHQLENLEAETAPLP
Sequence of Opioid receptors; mu/kappa/delta (Homo sapiens) (P41143 whole entry, looked up): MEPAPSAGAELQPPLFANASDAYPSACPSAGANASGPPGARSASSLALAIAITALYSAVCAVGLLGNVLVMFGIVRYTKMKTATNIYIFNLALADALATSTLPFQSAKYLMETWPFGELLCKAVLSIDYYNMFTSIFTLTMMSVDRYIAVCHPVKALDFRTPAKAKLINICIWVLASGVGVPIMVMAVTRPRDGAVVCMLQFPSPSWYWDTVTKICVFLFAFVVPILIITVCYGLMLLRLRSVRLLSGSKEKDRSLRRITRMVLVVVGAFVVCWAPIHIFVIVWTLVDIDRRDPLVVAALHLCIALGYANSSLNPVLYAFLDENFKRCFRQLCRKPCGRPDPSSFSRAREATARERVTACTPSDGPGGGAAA
Sequence of Opioid receptors; mu/kappa/delta (Homo sapiens) (P41145 whole entry, looked up): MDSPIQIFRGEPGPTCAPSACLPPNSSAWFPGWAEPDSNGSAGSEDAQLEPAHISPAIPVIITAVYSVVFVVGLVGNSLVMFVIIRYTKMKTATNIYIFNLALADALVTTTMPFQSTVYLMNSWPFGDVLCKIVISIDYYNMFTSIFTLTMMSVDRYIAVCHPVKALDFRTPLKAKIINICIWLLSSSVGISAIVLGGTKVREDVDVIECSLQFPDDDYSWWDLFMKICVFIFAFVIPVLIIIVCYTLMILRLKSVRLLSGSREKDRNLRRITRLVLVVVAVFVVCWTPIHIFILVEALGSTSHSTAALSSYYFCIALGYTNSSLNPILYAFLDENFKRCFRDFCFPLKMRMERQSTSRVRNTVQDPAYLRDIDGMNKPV

With `C[C@H](N)Cn1ncc2ccc(O)cc21`, the inhibition in assay [1] was 6.16%; in assay [2], 10.7%; in assay [3], -6.46%; in assay [4], 6.62%; in assay [5], 15.8%; in assay [6], 12.6%. For the same compound, the inhibition stood at 21.9% in [7]; 0.86% in assay [8]; 3.93% in [9]; 0.47% in assay [11]; 7.33% in [12]; 63.3% in [13]. For the same compound, the inhibition in [14] was 11.4%. In assay [10], this compound had a pKi of 8.52.
